In patent US20120183579A1, “COMPOUNDS FOR INFLAMMATION AND IMMUNE-RELATED USES” (Synta Pharmaceuticals Corp., priority 2008, published 2012):
Where a name gives a salt, the structure may show the parent alone.

Tested on: IL-2
Assay: Inhibition of IL-2 production (Jurkat cells activated with PHA, ELISA)
Format: cell-based
Details: Jurkat/PHA/1% FBS
Method: Jurkat cells were placed in a 96 well plate (0.5 million cells per well in 1% FBS medium), and then a test compound of this invention was added at different concentrations. After 10 minutes, the cells were activated with PHA (final concentration 2.5 μg/mL) and incubated for 20 hours at 37° C. under 5% CO2. The final volume was 200 μL. Following incubation, the cells were centrifuged, and the supernatants collected and stored at −70° C. prior to assaying for IL-2 production. A commercial ELISA kit (IL-2 Eli-pair, Diaclone Research, Besancon, France) was used to detect production of IL-2, from which dose response curves were obtained. The IC50 value was calculated as the concentration at which 50% of maximum IL-2 production after stimulation was inhibited versus a non-stimulation control.

[1] = Homo sapiens, Jurkat, numeric values

SMILES | IC50 [1] [nM] | other results
CC1=C(c2ccc(NC(=O)c3ccccc3F)cc2)CN(c2nccs2)CC1 [Compound 7, 2-fluoro-N-(4-(4-methyl-1-(thiazol-2-yl)-1,2,5,6-tetrahydropyridin-3-yl)phenyl)benzamide] | 13 | 
Cn1nnc(N2CCC(C3CC3)=C(c3ccc(NC(=O)c4c(F)cccc4F)cc3)C2)n1 [Compound 8, N-(4-(4-cyclopropyl-1-(2-methyl-2H-tetrazol-5-yl)-1,2,5,6-tetrahydropyridin-3-yl)phenyl)-2,6-difluorobenzamide] | 14 | 
CC1=C(c2cnc(NC(=O)c3c(F)cccc3F)cn2)CN(c2ncc(C)s2)CC1 [Compound 9, 2,6-difluoro-N-(5-(4-methyl-1-(5-methylthiazol-2-yl)-1,2,5,6-tetrahydropyridin-3-yl)pyrazin-2-yl)benzamide hydrochloride] | 15 | 
CC1=C(c2cnc(NC(=O)c3c(F)cccc3F)cn2)CN(c2ncccc2C#N)CC1 [Compound 10, N-(5-(1-(3-cyanopyridin-2-yl)-4-methyl-1,2,5,6-tetrahydropyridin-3-yl)pyrazin-2-yl)-2,6-difluorobenzamide] | 18 | 
O=C(Nc1cnc(C2=C(Cl)CCN(c3nccs3)C2)cn1)c1c(F)cccc1F [Compound 12, N-(5-(4-chloro-1-(thiazol-2-yl)-1,2,5,6-tetrahydropyridin-3-yl)pyrazin-2-yl)-2,6-difluorobenzamide hydrochloride] | 19 | 
CC1=C(c2cnc(NC(=O)c3cc(F)ccc3C)cn2)CN(c2ncccc2F)CC1 [Compound 13, 5-fluoro-N-(5-(1-(3-fluoropyridin-2-yl)-4-methyl-1,2,5,6-tetrahydropyridin-3-yl)pyrazin-2-yl)-2-methylbenzamide] | 30 | 
CC1=C(c2cnc(NC(=O)c3cc(F)ccc3Cl)cn2)CN(c2ncccc2F)CC1 [Compound 16, 2-chloro-5-fluoro-N-(5-(1-(3-fluoropyridin-2-yl)-4-methyl-1,2,5,6-tetrahydropyridin-3-yl)pyrazin-2-yl)benzamide] | 30 | 
CC1=C(c2cnc(NC(=O)c3c(F)cccc3F)cn2)CN(c2nc(-c3cccnc3)cs2)CC1 [Compound 17, 2,6-difluoro-N-(5-(4-methyl-1-(4-(pyridin-3-yl)thiazol-2-yl)-1,2,5,6-tetrahydropyridin-3-yl)pyrazin-2-yl)benzamide] |  | IC50 (Homo sapiens, Jurkat, activity class): 50 to 100 nM
CCn1nnc(N2CCC(C)=C(c3cnc(NC(=O)c4c(F)cccc4Cl)cn3)C2)n1 [Compound 18, 2-chloro-N-(5-(1-(2-ethyl-2H-tetrazol-5-yl)-4-methyl-1,2,5,6-tetrahydropyridin-3-yl)pyrazin-2-yl)-6-fluorobenzamide] | 32 | 
CC1=C(c2cnc(NC(=O)c3c(F)cccc3F)cn2)CN(c2ncc(F)cc2F)CC1 [Compound 19, N-(5-(1-(3,5-difluoropyridin-2-yl)-4-methyl-1,2,5,6-tetrahydropyridin-3-yl)pyrazin-2-yl)-2,6-difluorobenzamide] | 36 | 
CC1=C(c2ccc(NC(=O)c3c(F)cccc3F)cc2)CN(c2nnn(C)n2)CC1 [Compound 20, 2,6-difluoro-N-(4-(4-methyl-1-(2-methyl-2H-tetrazol-5-yl)-1,2,5,6-tetrahydropyridin-3-yl)phenyl)benzamide] | 52 | 
CC1=C(c2cnc(NC(=O)c3cc(F)ccc3Cl)cn2)CN(c2nccs2)CC1 [Compound 21, 2-chloro-5-fluoro-N-(5-(4-methyl-1-(thiazol-2-yl)-1,2,5,6-tetrahydropyridin-3-yl)pyrazin-2-yl)benzamide] | 55 | 
CC1=C(c2cnc(NC(=O)c3ccc(F)cc3F)cn2)CN(c2nccs2)CC1 [Compound 22, 2,4-difluoro-N-(5-(4-methyl-1-(thiazol-2-yl)-1,2,5,6-tetrahydropyridin-3-yl)pyrazin-2-yl)benzamide] | 10 | 
CC1=C(c2ccc(NC(=O)c3ccncc3F)cc2)CN(c2ncccc2F)CC1 [Compound 23, 3-fluoro-N-(4-(1-(3-fluoropyridin-2-yl)-4-methyl-1,2,5,6-tetrahydropyridin-3-yl)phenyl)isonicotinamide] | 14 | 
CC1=C(c2cnc(NC(=O)c3c(F)cccc3F)cn2)CN(c2ncccc2O)CC1 [Compound 24, 2,6-difluoro-N-(5-(1-(3-hydroxypyridin-2-yl)-4-methyl-1,2,5,6-tetrahydropyridin-3-yl)pyrazin-2-yl)benzamide] | 14 | 
CC1=C(c2ccc(NC(=O)c3ccccc3Cl)cc2)CN(c2nnn(C)n2)CC1 [Compound 25, 2-chloro-N-(4-(4-methyl-1-(2-methyl-2H-tetrazol-5-yl)-1,2,5,6-tetrahydropyridin-3-yl)phenyl)benzamide] | 17 | 
CC1=C(c2ccc(NC(=O)c3c(F)cncc3F)cc2)CN(c2ccccn2)CC1 [Compound 26, 3,5-difluoro-N-(4-(4-methyl-1-(pyridin-2-yl)-1,2,5,6-tetrahydropyridin-3-yl)phenyl)isonicotinamide hydrochloride] | 18 | 
CC1=C(c2ccc(NC(=O)c3ccncc3Cl)cc2)CN(c2nnn(C)n2)CC1 [Compound 27, 3-chloro-N-(4-(4-methyl-1-(2-methyl-2H-tetrazol-5-yl)-1,2,5,6-tetrahydropyridin-3-yl)phenyl)isonicotinamide] | 19 | 
O=C(Nc1ccc(C2=C(Cl)CCN(c3nccs3)C2)cc1)c1c(F)cccc1F [Compound 28, N-(4-(4-chloro-1-(thiazol-2-yl)-1,2,5,6-tetrahydropyridin-3-yl)phenyl)-2,6-difluorobenzamide] | 19 | 
CC1=C(c2ccc(NC(=O)c3cccc(F)c3Cl)cc2)CN(c2nnn(C)n2)CC1 [Compound 29, 2-chloro-3-fluoro-N-(4-(4-methyl-1-(2-methyl-2H-tetrazol-5-yl)-1,2,5,6-tetrahydropyridin-3-yl)phenyl) benzamide] | 20 | 
CC1=C(c2ccc(NC(=O)c3ccccc3F)cc2)CN(c2nnn(C)n2)CC1 [Compound 30, 2-fluoro-N-(4-(4-methyl-1-(2-methyl-2H-tetrazol-5-yl)-1,2,5,6-tetrahydropyridin-3-yl)phenyl)benzamide] | 21 | 
CC1=C(c2cnc(NC(=O)c3cnccc3C)cn2)CN(c2ncccc2F)CC1 [Compound 31, N-(5-(1-(3-fluoropyridin-2-yl)-4-methyl-1,2,5,6-tetrahydropyridin-3-yl)pyrazin-2-yl)-4-methylnicotinamide] | 21 | 
O=C(Nc1ccc(C2=C(Cl)CCN(c3nccs3)C2)cc1)c1c(F)cccc1F [Compound 32, N-(4-(4-chloro-1-(thiazol-2-yl)-1,2,5,6-tetrahydropyridin-3-yl)phenyl)-2,6-difluorobenzamide hydrochloride] |  | IC50 (numeric values, hydrochloride): 21 nM
CC1=C(c2ccc(NC(=O)c3c(F)cccc3F)cc2)CN(c2ccccn2)CC1 [Compound 33, 2,6-difluoro-N-(4-(4-methyl-1-(pyridin-2-yl)-1,2,5,6-tetrahydropyridin-3-yl)phenyl)benzamide] | 22 | 
Cn1nnc(N2CCC(Cl)=C(c3ccc(NC(=O)c4c(F)cccc4F)cc3)C2)n1 [Compound 34, N-(4-(4-chloro-1-(2-methyl-2H-tetrazol-5-yl)-1,2,5,6-tetrahydropyridin-3-yl)phenyl)-2,6-difluorobenzamide] | 22 | 
CC1=C(c2cnc(NC(=O)c3ccccc3Cl)cn2)CN(c2nccnc2Cl)CC1 [Compound 35, 2-chloro-N-(5-(1-(3-chloropyrazin-2-yl)-4-methyl-1,2,5,6-tetrahydropyridin-3-yl)pyrazin-2-yl)benzamide] | 23 | 
